Experimental findings from patent US6469174B1, “Substituted pyrrolobenzimidazoles for treating inflammatory diseases” (Ortho-McNeil Pharmaceutical, Inc., priority 1998, dated 2002) are described below.

Assay [1] has as its system TNF-α. Kind of assay: In vitro whole cell assay: LPS-stimulated TNF-α production in PBMC (ELISA). The class given is cell-based. To be noted: LPS-stimulated human PBMC. As to the method:
In addition to the enzyme assay, many of the compounds of the invention were tested in an in vitro whole cell assay using peripheral blood mononuclear cells (“PBMC”) which were obtained from human blood as follows. Freshly obtained venous blood was anticoagulated with heparin, diluted with an equal volume of phosphate buffered saline (“PBS”) and placed in a sterile tube or other container. Aliquots (30 mL) of this mixture were transferred to centrifuge tubes which were underlaid with Ficoll-Hypaque (15 mL). The prepared tubes were centrifuged at 400×g without braking for 30 minutes at room temperature. Approximately ½ to ⅔ of the platelet layer above the mononuclear cell band was removed with a pipet. The majority of the mononuclear cell layer was carefully removed using a pipet and these PBMC's were diluted with PBS and spun at 600×g for 15 minutes. The resulting PBMC's were washed with another portion of PBS and spun at 400×g for 10 minutes at room temperature. The recovered pellets were diluted in low endotoxin RPMI/1% FCS culture medium and gave a cell concentration of 0.5-2.0×10^6 PBMC/ mL. A small volume of the suspension was removed for counting on a hemocytometer and the remaining preparation was centrifuged at 200×g for 15 minutes at room temperature. The recovered pelleted PBMC's were resuspended in RPMI/1% FCS to a concentration of 1.67×10^6/mL.
To run the assay, the PBMC suspension (180 μL) was transferred to duplicate wells of a 96-well flat-bottom microtiter plate and incubated for 1 hour at 37° C. A solution of test compound (10 μL: prepared at 20×the desired final concentration) was added to each well and the plate was incubated for 1 hour at 37° C. A solution (10 μL) of LPS in RPMI/1% FCS (200 ng/mL) was added and the wells were incubated overnight at 37° C. The supernatant (100 μL) was removed from each well and diluted with RPMI/1% FCS (400 μL). The samples were analyzed for TNF-α using a commercial ELISA kit (Genzyme).
Certain compounds of the invention are listed in Tables A and B. The compounds were tested for their ability to inhibit TNF-α in vitro. The data are listed as an IC50 or as the % inhibition at a given concentration.

The test system of assay [2] is TNF-α. Kind of assay: In vivo LPS-induced TNF-α production, oral dosing. To be noted: mouse, LPS 1 mg/kg i.p. The method, then:
Mice (BALB/cJ females, Jackson Laboratories) or rats (Lewis males, Charles River) were fasted for 30 minutes prior to oral dosing with 5-10 mL/kg of test compound at 5-50 mg/kg. Thirty minutes after dosing, the animals were injected intraperitoneally with LPS at 1 mg/kg and returned to their cages for 1 hour. Animals were anesthetized by CO2, exsanguinated by cardiac puncture and whole blood collected (0.1-0.7 mL). The blood was allowed to clot and serum was transferred to a centrifuge tube. This sample was centrifuged, serum was collected, aliquoted and frozen at −80° C. Samples were tested by commercial ELISA's for TNF-α (Endogen for mouse TNF-α and Biosource for rat TNF-α).

Another assay concerns the target p38 (Homo sapiens, UniProt Q16539). Nature of the assay: In vitro enzyme assay: inhibition of p38 activity. The class given is biochemical.
[3] abbreviates: Table B, read-out: IC50 (TNF-α in vitro).

Each structure is given as a SMILES string. Like-named read-outs stand apart in the source and are kept apart here. Where only a bound is given, the exact number is not on record here.

By IC50 is commonly meant the midpoint of a concentration-inhibition curve.

p38, sequence (Q16539 whole entry): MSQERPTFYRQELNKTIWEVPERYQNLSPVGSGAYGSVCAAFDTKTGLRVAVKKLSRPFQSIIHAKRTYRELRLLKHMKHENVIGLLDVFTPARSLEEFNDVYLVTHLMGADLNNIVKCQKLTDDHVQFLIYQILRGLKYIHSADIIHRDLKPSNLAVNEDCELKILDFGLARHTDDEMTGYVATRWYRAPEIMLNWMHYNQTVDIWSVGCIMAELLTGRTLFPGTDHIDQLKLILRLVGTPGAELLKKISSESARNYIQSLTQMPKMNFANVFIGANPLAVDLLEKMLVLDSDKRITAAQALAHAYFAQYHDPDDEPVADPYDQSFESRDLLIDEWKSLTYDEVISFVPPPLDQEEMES
Method for p38: Compounds of the invention were measured for their ability to inhibit the activity of p38 by the following in vitro assay.
A solution (38 μL) of purified recombinant p38 (where the amount of enzyme was determined empirically considering the linear range of the assay and the acceptable signal to noise ratio; 6×His-p38 expressed in E. coli), myelin basic protein substrate (also determined empirically), and a buffer of pH 7.5 (Hepes:25 mM, MgCl2:10 mM, MnCl2:10 mM) were added to 92 wells of a 96-well round bottom polypropylene plate. The remaining wells were used for control (“CTRL”) and background (“BKG”).
The CTRL was prepared with the enzyme, substrate buffer and 2% DMSO, and the BKG was prepared with substrate buffer and 2% DMSO. […]
The contents of each well were transferred to the wells of a 96-well filterplate (Millipore, MultiScreen-DP) and the filterplate was placed on a vacuum manifold, fitted with a waste collection tray. […] MicroScint-20 scintillant was added, the plates were sealed using Topseal-S sheets and counted in a Packard TopCount scintillation counter using a ^33P liquid program with color quench correction, where the output is in color quench-corrected cpm.
The % inhibition of the test compounds was calculated by the following formula: % inhibition=[1−(sample −BKG)/(CTRL−BKG)]×100.

For `Fc1ccc(-c2c(-c3ccncc3)[nH]c3ccc4c(ncn4CCCc4ccccc4)c23)cc1` [Compound 11, 3,6-dihydro-8-(4-fluorophenyl)-3-(3-phenylpropyl)-7-(4-pyridyl)-pyrrolo[3,2-e]benzimidazole], in the assay with TNF-α [1] (@ 400 nM, Table B, read-out: % inhibition of TNF-α at a given concentration), the inhibition at 0.4 µM came out at 0%. With `Fc1ccc(-c2[nH]c3ccc4nc(-c5ccccc5)[nH]c4c3c2-c2ccncc2)cc1` [Compound 2, 1,6-dihydro-7-(4-fluorophenyl)-8-(4-pyridyl)-2-phenyl-pyrrolo[3,2-e]benzimidazole], the IC50 in the assay with TNF-α [1] (Table A, read-out: TNF-α IC50) came out at 20 nM. Turning to `Fc1ccc(-c2c(-c3ccncc3)[nH]c3ccc4nc(Cc5ccccc5)[nH]c4c23)cc1` [Compound 10, 1,6-dihydro-7-(4-pyridyl)-8-(4-fluorophenyl)-2-phenylmethyl-pyrrolo[3,2-e]benzimidazole], the IC50 in the assay on TNF-α [1] (setting [3]) is more than 400 nM.

As to `Fc1ccc(-c2[nH]c3ccc4[nH]c(Cc5ccccc5)nc4c3c2-c2ccncc2)cc1` [Compound 1, 1,6-Dihydro-7-(4-fluorophenyl)-8-(4-pyridyl)-2-phenylmethyl-pyrrolo [3,2-e] benzimidazole], the IC50 with TNF-α [1] (Table A, read-out: TNF-α IC50) turned out to be 7 nM. Further, the “inhibition of TNF-α” value is listed as 74% in the assay with TNF-α [2] (10 mg/kg) and 91% in the assay with TNF-α [2] (25 mg/kg). At p38, the inhibition at 20 µM was 44%. `Fc1ccc(-c2[nH]c3ccc4nc(CCc5ccccc5)[nH]c4c3c2-c2ccncc2)cc1` [Compound 7, 1,6-dihydro-7-(4-fluorophenyl)-8-(4-pyridyl)-2-(2-phenylethyl)-pyrrolo[3,2-e]benzimidazole]: the IC50 in the assay on TNF-α [1] (Table A, read-out: TNF-α IC50) was 50 nM. As for `CCCCc1nc2ccc3[nH]c(-c4ccc(F)cc4)c(-c4ccncc4)c3c2[nH]1` [Compound 4, 1,6-dihydro-7-(4-fluorophenyl)-8-(4-pyridyl)-2-butyl-pyrrolo[3,2-e]benzimidazole], the IC50 with TNF-α [1] (Table A, read-out: TNF-α IC50) is 45 nM. Take `Fc1ccc(-c2c(-c3ccncc3)[nH]c3ccc4nc[nH]c4c23)cc1` [Compound 9, 1,6-dihydro-7-(4-pyridyl)-8-(4-fluorophenyl)-pyrrolo[3,2-e]benzimidazole]: the IC50 in the assay on TNF-α [1] (setting [3]) was 15 nM.
